In PubChem BioAssay AID2305 (GlaxoSmithKline (GSK), 2010):
“And” between values parts separate entries of the source, which are not always exact repeats. Equal entries are not always repeated.

System: P. falciparum 3D7 growth, pLDH absorbance
Experiment: blood-stage malaria parasite growth potency – strain 3D7, dose response (AID 2305)

Q: With `CCOC(=O)c1[nH]c2ccc(F)cc2c1NC(=O)CN1CCN(c2cccc(C(F)(F)F)c2)CC1` as the compound, how does the IC50 read?
A: 460 nM

Q: With `O=C(c1cc(C(F)(F)F)cc(C(F)(F)F)c1)N1CC[C@H](CCN2CCC3(CC2)C(=O)NCN3c2ccccc2)C[C@H]1Cc1ccc(Cl)c(Cl)c1` as the compound, how does the IC50 read?
A: 660 nM

Q: Which IC50 does the source give for `CCCCN(CCCC)CCC(O)C(=Cc1ccc(Cl)cc1Cl)c1ccc(C(F)(F)F)cc1N` (stereo not drawn) here?
A: 190 nM

Q: With `CCCN(CCC)C(=S)N=Nc1c(O)[nH]c2ccccc12` as the compound, how does the IC50 read?
A: 810 nM

Q: With `COc1ccc2nccc([C@@H](O)CN3CCC(NCc4ccc5c(c4)NC(=O)C(C)S5)CC3)c2c1` (stereo partly drawn) as the compound, how does the IC50 read?
A: 200 nM

Q: For `O=C(C=Cc1ccc(Cl)c(Cl)c1)NCCCCCN1CCC(CCNC(=O)/C=C/c2ccccc2)CC1`, which IC50 is on record?
A: 780 nM

Q: `O=C(N[C@@H](Cc1ccccc1)[C@H](O)CNCCC(F)(F)F)c1cccc(OCC2CC2)c1` was tested. Which IC50 did it give?
A: 620 nM

Q: How did the IC50 turn out when `COCCN1CCC(CNCC(C)(C)c2nc(-c3ccc(Cl)c(O)c3)c(-c3ccncc3)[nH]2)CC1` was run?
A: 750 nM

Q: Which IC50 does the source give for `OCC1CCN(Cc2ccc(-c3ccc(-c4nc5ccc(F)cc5[nH]4)cc3)cc2)CC1` here?
A: 840 nM

Q: Which IC50 does the source give for `CNS(=O)(=O)Cc1ccc(Nc2nccc(Nc3cccc4c3cnn4C(=O)Nc3ccccc3)n2)cc1` here?
A: 960 nM

Q: How did the IC50 turn out when `Nc1nccc(-c2ccc3c(/C=C/c4ccccc4)cnc(N)c3c2)n1` was run?
A: 620 nM

Q: `CC(C)Cn1c(Sc2ccc(C#N)c([N+](=O)[O-])c2)nnc1-c1cccc(Cl)c1` was tested. Which IC50 did it give?
A: 300 nM

Q: For `Cn1nc(-c2ccc(S(=O)(=O)N3CCC(CCN4CCC(c5c[nH]c6ccccc56)CC4)CC3)s2)cc1C(F)(F)F`, which IC50 is on record?
A: 810 nM

Q: With `COc1ccc2nc(C)cc(Nc3ccc(Oc4ccc(Br)c5ccccc45)c(Cl)c3)c2c1` as the compound, how does the IC50 read?
A: 280 nM

Q: For `O=C(/C=C/c1cccc(Cl)c1)Nc1ccc2nc(CN3CCCC3)ccc2c1`, which IC50 is on record?
A: 260 nM

Q: With `OC(CNC1CCCCC1)c1ccc(Cl)c(Cl)c1` (stereo not drawn) as the compound, how does the IC50 read?
A: 700 nM

Q: Which IC50 does the source give for `CCN1CCN(C(=O)NC(C(=O)N2CCCC(COc3ccc(Cc4ccccc4)cc3)C2)c2cccs2)C(=O)C1=O` (stereo not drawn) here?
A: 480 nM

Q: `Cc1[nH]c2ccc([N+](=O)[O-])cc2c1C1=CCN(C)CC1` was tested. Which IC50 did it give?
A: 330 nM

Q: `O=C(NC1CC1)c1cnc(N2CCC(Cc3ccccc3)CC2)c(Cl)c1` was tested. Which IC50 did it give?
A: 670 nM

Q: `O=C(NCCCCN1CCC(c2ccc(OC(F)(F)F)cc2)CC1)c1ccc(NC(=O)c2ccc(Cl)cc2)cc1` was tested. Which IC50 did it give?
A: 630 nM

Q: `COc1ccc(Nc2nccc(-c3ccc4ccnc(NCCCCN)c4c3)n2)cc1` was tested. Which IC50 did it give?
A: 750 nM

Q: With `Cc1ccc(-c2csc(C)n2)c(C)c1` as the compound, how does the IC50 read?
A: 990 nM

Q: For `Cn1cncc1-c1ccc2ncnc(Nc3ccc4c(cnn4Cc4ccccc4)c3)c2c1`, which IC50 is on record?
A: 180 nM

Q: `COc1cc(C2=NN(S(=O)(=O)c3c(Cl)cc(Cl)cc3Cl)CCCC2)ccc1Cl` was tested. Which IC50 did it give?
A: 290 nM

Q: `CN1CCc2ccc(NC(=O)Nc3ccc(-c4ccccc4)cc3)cc2C1` was tested. Which IC50 did it give?
A: 510 nM

Q: Which IC50 does the source give for `Fc1cccc(Nc2nc(NCc3ccc(OCc4ccccc4)cc3)nc(Nc3cccc(F)c3)n2)c1` here?
A: 1180 nM

Q: Which IC50 does the source give for `CCn1cnc2c(N3CCCCS3(=O)=O)cc(C(=O)N[C@@H](Cc3ccccc3)[C@H](O)CNC3CCOCC3)cc21` here?
A: 710 nM

Q: For `O=C(NCc1ccc(Cl)c(Cl)c1)c1ccc(-c2nc3cc(F)c(F)cc3[nH]2)cc1`, which IC50 is on record?
A: 1050 nM

Q: With `COc1ccc(C[C@H](C)NC[C@H](O)c2cccc(Cl)c2)cc1F` as the compound, how does the IC50 read?
A: 990 nM

Q: For `Cc1ccc(Oc2ccc(NC(=O)CNc3ccccc3N3CCCC3=O)cc2)cc1`, which IC50 is on record?
A: 370 nM

Q: `Cc1ccc(Cc2cnc(CN3CCCCC3)c(O)c2)cc1` was tested. Which IC50 did it give?
A: 890 nM

Q: With `Fc1cccc(COc2ccc(Nc3ncnc4ccc(-c5nnc(C(F)(F)F)o5)cc34)cc2Cl)c1` as the compound, how does the IC50 read?
A: 580 nM

Q: Which IC50 does the source give for `O=C(Nc1ccc(-n2ccc(C(F)(F)F)n2)cc1)c1cccs1` here?
A: 1070 nM

Q: How did the IC50 turn out when `CC(C)C[C@@H]1C(=O)N[C@H](C2Cc3ccccc3C2)C(=O)N1[C@@H](C(=O)O)c1ccc(F)cc1F` was run?
A: 840 nM

Q: How did the IC50 turn out when `CN(CCS(C)(=O)=O)Cc1ccc(-c2ccc3ncnc(Nc4ccc(OCc5cccc(F)c5)c(Cl)c4)c3c2)o1` was run?
A: 680 nM

Q: `Cc1cccc(CNc2nc(C)cc(NCCC(=O)NCc3cccc(F)c3)n2)c1` was tested. Which IC50 did it give?
A: 850 nM

Q: How did the IC50 turn out when `CCCCCCOc1ccc(N2C(N)=NC(N)=NC2(C)C)cc1` was run?
A: 340 nM

Q: How did the IC50 turn out when `O=C(Nc1ccc(Cl)cc1)NC1CCN(CCCCCNC(=O)[C@@H]2C[C@H]2c2ccc(Cl)c(Cl)c2)CC1` was run?
A: 580 nM

Q: For `ON=C(c1nc2ccccc2[nH]1)c1nc2ccccc2[nH]1`, which IC50 is on record?
A: 1090 nM

Q: How did the IC50 turn out when `Cc1nc2nc(N)nc(N)c2c(C)c1Cc1ccc(C(N)=O)cc1` was run?
A: 530 nM

Q: `C=CCO[C@@H]1O[C@H](COC(c2ccccc2)(c2ccccc2)c2ccccc2)[C@@H](OC(C)=O)[C@H](OC(C)=O)[C@H]1NC(C)=O` was tested. Which IC50 did it give?
A: 660 nM

Q: Which IC50 does the source give for `OC(CNc1ccnc(Nc2ccccc2)n1)c1ccc(C(F)(F)F)cc1` (stereo not drawn) here?
A: 610 nM

Q: How did the IC50 turn out when `CC(CN(C)C)C(=O)Nc1cccc(-c2cccc(-c3nc4ccccc4[nH]3)c2)c1` (stereo not drawn) was run?
A: 1060 nM

Q: How did the IC50 turn out when `CCc1cn2c3c(cc(C(=O)N[C@@H](Cc4ccccc4)[C@H](O)CNC4CCCCC4)cc13)N(CC)S(=O)(=O)CC2` was run?
A: 30 nM

Q: How did the IC50 turn out when `Nc1cccc(C=CC(=O)Nc2ccnc3ccccc23)c1` was run?
A: 1060 nM

Q: With `COc1ccc2nc3cc(Cl)ccc3c(NCCCN3CCNCC3)c2c1` as the compound, how does the IC50 read?
A: 230 nM

Q: With `O=C(Nc1ccccc1Cl)NC1CCC(CN2CCC(c3c[nH]c4ccccc34)CC2)CC1` (stereo not drawn) as the compound, how does the IC50 read?
A: 800 nM and 750 nM

Q: With `O=C(/C=C/c1ccc(I)cc1)NCCCCCN1CCC(c2c[nH]c3ccc(O)cc23)CC1` as the compound, how does the IC50 read?
A: 770 nM

Q: With `CCCCc1cc(O)c2c(c1)OC(C)(C)C=C2C1=CCN(Cc2ccccc2)CC1` as the compound, how does the IC50 read?
A: 250 nM

Q: With `CCCCN(CCCC)CCNC(=O)c1cccc(NC(=O)N2CCc3cc(SC)c(C(F)(F)F)cc32)c1` as the compound, how does the IC50 read?
A: 810 nM

Q: Which IC50 does the source give for `CCCCOc1c(CNCCCCCCNCc2ccc3ccccc3c2OCCCC)ccc2ccccc12` here?
A: 870 nM

Q: How did the IC50 turn out when `Cc1ccc(C(c2nnnn2C2CCCC2)N(Cc2ccco2)Cc2ccccc2Cl)cc1` (stereo not drawn) was run?
A: 960 nM

Q: `COc1cc2nc(NCCc3ccccc3)nc(NCc3nccs3)c2cc1OC` was tested. Which IC50 did it give?
A: 530 nM

Q: With `CCCCN(CCCC)CCNC(=O)c1ccc(-c2nc3ccc(Cl)cc3[nH]2)c(OCC)c1` as the compound, how does the IC50 read?
A: 570 nM

Q: How did the IC50 turn out when `CCc1ccc(CN2CCC(NC(=O)c3ccc(-c4ccc(N(C)C)cc4)s3)CC2)cc1` was run?
A: 1210 nM

Q: How did the IC50 turn out when `O=C(Cc1ccccc1)NC(CCN1CCC(NC(=O)c2ccc(Cl)cc2)CC1)c1ccc(Cl)c(Cl)c1` (stereo not drawn) was run?
A: 920 nM

Q: How did the IC50 turn out when `CC(C)N(C)C(=O)n1cnc(S(=O)(=O)C2C[C@@H]3CC[C@H]2C3)n1` (stereo partly drawn) was run?
A: 60 nM

Q: For `O=C(/C=C/c1ccc(Cl)c(Cl)c1)NCCCCCN1CCCN(C(=O)Nc2ccc([N+](=O)[O-])cc2)CC1`, which IC50 is on record?
A: 620 nM

Q: Which IC50 does the source give for `CCCC(=O)Nc1ccc(OCCCN(Cc2ccccc2OC(F)(F)F)c2ccc(C#N)c(C(F)(F)F)c2)cc1` here?
A: 600 nM

Q: With `Cc1cccc(Cl)c1Nc1nnc(-c2cccc(C(=O)NC[C@@H]3CC[C@H]4C[C@@H]3C4(C)C)c2)o1` as the compound, how does the IC50 read?
A: 270 nM

Q: Which IC50 does the source give for `CN(C)CCC=C1c2ccccc2Sc2c(O)cc(Cl)cc21` here?
A: 280 nM

Q: How did the IC50 turn out when `CC(=O)N(C)c1cccc(C(=O)Nc2ccc(-c3cccc(-c4nc5ccc(C(F)(F)F)cc5[nH]4)c3)cc2)c1` was run?
A: 720 nM

Q: `Ic1cc(CNC2CCCCC2)ccc1OCc1cccc(COc2ccc(CNC3CCCCC3)cc2I)c1` was tested. Which IC50 did it give?
A: 830 nM

Q: With `CCCC(C)NC[C@@H](O)[C@H](Cc1ccccc1)NC(=O)c1cc(NCC)cc(N2CCCCS2(=O)=O)c1` (stereo partly drawn) as the compound, how does the IC50 read?
A: 160 nM

Q: With `CCCCCc1cc(O)c2c(c1)OC(C)(C)C=C2C1=CCN(Cc2ccsc2)CC1` as the compound, how does the IC50 read?
A: 960 nM

Q: With `Nc1ccc2[nH]cc(C3CCN(CC4CCN(C(=O)/C=C/c5ccc(Cl)c(Cl)c5)CC4)CC3)c2n1` as the compound, how does the IC50 read?
A: 700 nM

Q: With `COc1ccc(OC)c(-c2ccc(=O)n(CC(=O)Nc3cccc4ccccc34)n2)c1` as the compound, how does the IC50 read?
A: 900 nM

Q: For `CCCC1(NC[C@@H](O)[C@H](Cc2ccccc2)NC(=O)c2cc(NCC)cc(N3CCCCS3(=O)=O)c2)CCC1`, which IC50 is on record?
A: 720 nM
